Source: paper PMC7645381, “Development and application of a high-throughput screening assay for identification of small molecule inhibitors of the P. falciparum reticulocyte binding-like homologue 5 protein” (International Journal for Parasitology: Drugs and Drug …, 2020)

Key:
D10-PfPHG parasites = assay: Schizont rupture assay; assay type: cell-based, P. falciparum
Experimental: D10-PfPHG parasites ([Wilson et al., 2010]) were cultured in human O^+ erythrocytes in RPMI-HEPES culture medium (pH 7.4, 50 μg/mL hypoxanthine, 25 mM NaHCO3, 20 μg/mL gentamicin, 0.5% Albumax II (Thermo Fisher Scientific) according to established protocols ([Trager and Jensen, 1976]) and maintained in an atmosphere of 1% O2, 4% CO2 and 95% N2. For assessment of merozoite invasion after schizont rupture, parasites were tightly synchronised to a 4 h window of invasion using heparin ([Boyle et al., 2010]; [Wilson et al., 2015]) and then grown for a further 42 h. Drug treatments were setup at 2–3% parasitaemia and 1% haematocrit in 50 μL volumes with a 1 in 10 dilution of drug added when parasites were 44–48 h post invasion. After 6 h of drug treatment and immediately after invasion was expected to finish, the assays were treated with 5 μg/mL ethidium bromide (EtBr, Bio-Rad) for 5 min prior to flow cytometry assessment of parasitaemia using a Becton Dickinson Accuri. Gating of newly invaded rings, free merozoites and unruptured late stages was achieved as per published methods ([Wilson et al., 2013]).
To determine if the modest activity of pranlukast and analogues in the parasite viability assay was a consequence of invasion inhibition, rather than inhibition at another stage of blood stage parasite development, we performed an assay that measures the effect of compound treatment on P. falciparum D10 asexual stage transition between late schizont and ring stages ([Wilson et al., 2013]). In this assay, highly synchronised mature schizont-stage parasites were incubated with pranlukast and selected analogues at 50 and 100 μM and the transition to newly invaded ring stage parasites was quantified by flow cytometry. In parallel, the rate of schizont rupture and merozoite release was quantified to assess whether any reduction in newly invaded ring stages was due to a block affecting merozoite release or development. […] Neither DMSO (at the maximal concentration used for the drug treatments of 0.1%) or a non-invasion inhibitory mAb control caused a reduction in merozoite invasion. […] […].

DCLK1 = biological target: T1, DCLK1 (Homo sapiens, UniProt O15075); assay: Differential scanning fluorimetry of control protein DCLK1; assay type: binding; conditions: DSF
T1 construct: made in house
T1 sequence (O15075 372-649 limits assumed): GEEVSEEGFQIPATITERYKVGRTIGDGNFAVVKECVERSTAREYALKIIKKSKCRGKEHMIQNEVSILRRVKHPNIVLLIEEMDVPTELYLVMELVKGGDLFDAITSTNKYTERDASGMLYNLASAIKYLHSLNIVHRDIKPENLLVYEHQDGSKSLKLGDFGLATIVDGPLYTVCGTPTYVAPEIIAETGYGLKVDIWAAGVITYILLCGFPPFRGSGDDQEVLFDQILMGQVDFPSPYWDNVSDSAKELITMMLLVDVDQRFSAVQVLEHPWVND
Experimental: Doublecortin-like kinase domain 1 (DCLK1) used as a control protein in differential scanning fluorimetry experiments and was recombinantly expressed and purified according to the previously described protocol ([Patel et al., 2016]).
Differential scanning fluorimetry assays were performed as described previously ([Murphy et al., 2013], [2014a], [2014b]) using a Rotor-Gene Q PCR. Briefly, purified PfRh5 was diluted in 20 mM Tris pH 8.0, 150 mM NaCl to achieve 10 μg per reaction and assayed with the appropriate concentration of inhibitor in a total reaction volume of 25 μL. SYPRO Orange (Molecular Probes, CA) was used as a fluorescence probe and detected at 530 nm. Compounds were titrated at final concentrations ranging from 5 μM to 80 μM final. Data was transformed and plotted using GraphPad Prism. Shown data are representative means of two technical experiments.

HepG2 cells = assay: HepG2 growth inhibition assay; assay type: cell-based; conditions: Homo sapiens, 10-point dilution series, 48 h, Cell Titre-Glo
Experimental: HepG2 cells were cultured in Dulbeccos modified eagle's medium (DMEM) supplemented with 10% fetal calf serum (FCS), in a humidified incubator at 37 °C and 5% CO2. Ten-point compound titration assays were performed by treating cells (1 × 10^3) for 48 h in 384 well tissue culture treated plates (Greiner). Cytotoxicity was determined using Cell Titer Glo (Promega) and calculated as a percentage using DMSO as a positive growth control and 10 μM Bortezomib as a negative growth control. EC50 values were calculated using a 4-parameter log dose, non-linear regression analysis, with sigmoidal dose response (variable slope) curve fit using Graph Pad Prism (version 6.05). 0 and 100 constraint parameters were used for curve fitting. […]

O=C(Nc1cccc2c(=O)cc(-c3nnn[nH]3)oc12)c1ccc(OCCCCc2ccccc2)cc1 [pranlukast]
merozoite invasion (newly invaded early ring stages) (D10-PfPHG parasites; 50 and 100 μM, 6 h, flow cytometry): substantial reduction in the numbers of merozoites that had invaded and formed early ring stages | free merozoite numbers (D10-PfPHG parasites; lowest concentration tested (50 μM)): minimal loss in free merozoite numbers | effect on Tm of DCLK1 (DCLK1; concentration up to 20 μM): did not have a significant impact on the Tm of DCLK1 | effect on Tm of DCLK1 (DCLK1; high concentration (>40 μM)): markedly lower Tm | EC50 (HepG2 cells): > 50 µM
